Key:
Pseudomonas aeruginosa = experiment: Attached single cells in 6 well plate, Syto-9/SYTOX staining; type: cell-based
Description: An alternative method to observe biofilm formation on a 6 well plate with or without D-amino acids and using Syto-9 staining was as follows: Pseudomonas aeruginosa biofilms were washed twice with PBS and then fixed for at least an hour in 5% Glutaraldehyde in PBS. The fixed biofilms were then rinsed once again with PBS and soaked in 0.1% v/v Triton X-100 in PBS (PBST) for 15 minutes. The solution was exchanged with 0.1 nM SYTOX green (Invitrogen) in cold PBST and gently rocked in the dark for at least 15 minutes. Fluorescence images of the biofilms were captured with a Leica DMRX compound microscope using a Xe lamp and a K3 Leica filtercube. […] The amount of attached single cells was quantified using image J. The decrease in the amount of cells attached to the epoxy surfaces soaked with D-aa compared with the L-aa control was substantially more.

P.a. Harvard PA14 = experiment: Biofilm (colony architecture) formation on M63 defined solid medium; type: cell-based, Pseudomonas aeruginosa; conditions: 500 μM (L-tryptophan: concentration not given)
Excerpt: Similarly to Bacillus subtilis, Pseudomonas aeruginosa forms a complex architecture on defined medium. These complex structures require the proper formation and assembly of the extra-cellular matrix. […] For these experiments, the organism/strain was P.a. Harvard PA14, the culture medium was M63 and the cell inoculation was at 1.5×10^9 cfu.

[1] = tested on: Pseudomonas aeruginosa PA14; experiment: Biofilm formation on polystyrene, crystal violet staining; type: cell-based; conditions: 10 μM, 48 hours at 30° C., M63
Description: Crystal violet staining was done as described previously (O'Toole et al., Mol. Microbiol. 30:295 (1998)) except that the cells were grown in […]. Wells were stained with 500 μl of 1.0% Crystal-violet dye, rinsed twice with 2 ml double-distilled water and thoroughly dried.
P. aeruginosa strain […] was grown in 12-well polystyrene plates for 48 hours at 30° C. in M63 medium containing glycerol (0.2%) and Casamino acids ([…]). Additionally added to the wells were no amino acids (untreated), D-tyrosine or the D-amino acid equimolar mixture. Cells bound to the polystyrene were visualized by washing away unbound cells and then staining with crystal violet. Wells were stained with […] of 1.0% Crystal-violet dye, rinsed twice with 2 ml double-distilled water and thoroughly dried.
For experiments reported in Table 1, the organism/strain was S.a. Harvard SCO1, the culture medium was TSB and the cell inoculation was at 2×10^9 cfu. For experiments reported in Table 2, the organism/strain was […], the culture medium was M63 and the cell inoculation was at 1.5×10^9 cfu. Biofilm was visualized using the crystal violet method.

[2] = tested on: B. subtilis strain NCIB3610; experiment: Pellicle (biofilm) formation in liquid biofilm-inducing medium; type: cell-based, Bacillus subtilis
Description: (§1) For colony formation on solid medium, cells were first grown to exponential growth phase in LB broth and 3 μl of culture were spotted onto solid MSgg medium containing 1.5% Bacto agar. The plates were incubated at 23° C. For pellicle formation in liquid medium, cells were grown to exponential phase and 6 μl of culture were mixed with 6 ml of medium in a 12-well plate (VWR). Plates were incubated at 23° C. Images of colonies and pellicles were taken using a SPOT camera (Diagnostic Instruments, USA).
To investigate whether mature biofilms produce a factor that triggers biofilm disassembly, the effect of concentrated and partially purified extracts of conditioned medium on pellicle formation when added to fresh medium was assayed. To this end, conditioned medium from an eight-day-old culture was applied to a C18 Sep Pak column. Concentrated eluate from the column was then added to a freshly inoculated culture. […] Further purification of the factor was achieved by eluting the cartridge in step-wise fashion with increasing concentrations of methanol.
D-tyrosine, D-leucine, D-tryptophan, and D-methionine were screened for inhibiting biofilm formation by B. subtilis both in liquid and on solid medium (FIG. 2A, 5, 6).
Next, the minimum concentration (MIC for Minimal Inhibitory Concentration) needed to prevent biofilm formation was determined.

cell wall = experiment: Incorporation of radioactive amino acids into the cell wall; type: cell-based, Bacillus subtilis; conditions: 14C-labelled, 10 μCi/ml, 2 h at 37° C.
Description: Incorporation of amino acids into the cell wall. Cells in 50 ml of culture at the mid exponential phase of growth were harvested by centrifugation and washed with 0.05 M of phosphate buffer (pH 7) and re-suspended in 5 ml of the same buffer. […] The radioactivity of whole cells and cell wall fraction was monitored, and, at intervals samples were removed. For measurement of incorporation into whole cells, 0.1 ml samples were collected. For measurements of incorporation into cell wall, 0.5 ml samples were collected. The cells were harvested by centrifugation and re-suspended in SM buffer [0.5 M sucrose, 20 mM MgCl2, and 10 mM potassium phosphate at pH (6.8)] containing 0.1 mg/ml lysozyme. The cells were then incubated at 37° C. for 10 min. Next, the resulting protoplasts were removed by centrifugation at 5000 rpm for 10 min, leaving the cell wall material in the supernatant fluid. […] Finally, 10 ml of 5% trichloroacetic acid was added to the whole cell samples and the cell wall material and maintained on ice for at least 30 min. The TCA-insoluble material was collected on Millipore filters (0.22 μm pore size, Millipore) and washed with 5% TCA. The filters were air-dried and placed in scintillation vials and the TCA-insoluble counts per minute were determined using a scintillation counter.

B. subtilis [3] = experiment: Effect on cell growth in MSgg medium with shaking; type: cell-based, Bacillus subtilis; conditions: 3 μM
[4] = tested on: B. subtilis strain NCIB3610; experiment: Colony biofilm formation on solid MSgg medium; type: cell-based, Bacillus subtilis; conditions: 3 μM, 4 days
Description: as §1

eps operon (strain FC5) = experiment: Expression of PepsA-lacZ (β-galactosidase activity); type: cell-based, Bacillus subtilis; conditions: 3 μM
Description: (§2) Assays of β-galactosidase activity. Cells were cultured in MSgg medium at 37° C. in a water bath with shaking 1 ml of culture was collected at each time point. β-galactosidase activity was determined as described previously (Chai et al., Mol. Microbiol. 67:254 (2008)).

B. subtilis [5] = experiment: Disruption of existing biofilms (3 day-old pellicles); type: cell-based, Bacillus subtilis; conditions: 3 μM added to 3 day-old culture, 8 hours
[6] = tested on: yqxM operon (strain FC122); experiment: Expression of PyqxM-lacZ (β-galactosidase activity); type: cell-based, Bacillus subtilis; conditions: 3 μM
Description: as §2

TasA-mCherry = type: cell-based, Bacillus subtilis; conditions: 6 μM
Description: For fluorescence microscopy analysis, 1 ml of culture was harvested. The cells were washed with PBS buffer and suspended in 50 μl of PBS buffer. Cover slides were pretreated with poly L-lysine (Sigma). Samples were examined using an Olympus workstation BX61 microscope. Images were taken using the automated software program SimplePCI and analyzed with program MetaMorph (Universal Imaging Corporation).
The cells were grown to stationary phase with shaking in biofilm-inducing medium in the presence or absence of D-tyrosine (6 μM). […] When the cells were washed by centrifugation, resuspended and then examined by fluorescence microscopy, untreated cells (which were often in clumps) were seen to be intensely decorated with TasA-mCherry. […] The localization of unmodified TasA protein was also analyzed by transmission electron microscopy using gold-labeled anti-TasA antibodies. […] 24-hour-old cultures were incubated without (images 1 and 2) or with (images 3-6) D-tyrosine (0.1 mM) for an additional 12 hours. TasA fibers were stained by immunogold labeling using anti-TasA antibodies, and visualized by transmission electron microscopy as described in the Examples. […] Filled arrows indicate fiber bundles; open arrows indicate individual fibers. The scale bar is 500 nm. The scale bar in the enlargements of images 2, 4 and 6 is 100 nm. […]

SMILES: N[C@H](Cc1ccc(O)cc1)C(=O)O [D-Tyr, D-tyrosine]
- number of cells attached to the bottom of the biofilm plate (Pseudomonas aeruginosa): dramatic decrease
- effect on biofilm formation on defined medium (P.a. Harvard PA14): inhibited biofilm formation on defined medium
- effect on biofilm formation [1]: effective in preventing biofilm formation
- effect on pellicle formation ([2]; 3 μM added to freshly inoculated culture in biofilm-inducing medium, 3 days): significant inhibition of biofilm growth
- minimum concentration (MIC/MBIC) needed to prevent biofilm formation ([2]; complete inhibition of pellicle formation): about 100 nM
- biofilm-inhibition assay for B. subtilis ([2]; concentration not given): significant inhibition of biofilm growth
- incorporation into the cell wall (cell wall): incorporated into the cell wall
- cell growth (B. subtilis [3]): substantially the same as the untreated sample
- effect on biofilm formation on solid medium [4]: inhibited biofilm formation
- eps expression (eps operon (strain FC5)): substantially the same as the untreated sample
- effect on existing pellicles (B. subtilis [5]): conspicuous breakdown of pellicles
- yqxM expression [6]: substantially the same as the untreated sample
- cell association of TasA-mCherry (fluorescence microscopy of washed cells) (TasA-mCherry): only low levels of fluorescence
- total accumulation of TasA-mCherry (total fluorescence) (TasA-mCherry; grown to stationary phase): little or no effect

Reference: patent US20130071439A1, “METHODS AND COMPOSITIONS FOR TREATING BIOFILMS” (PRESIDENT AND FELLOWS OF HARVARD COLLEGE, priority 2010, published 2013)
